Data set [1] is described as follows: Bidirectional transport experiments in the Caco-2 cell culture model. To be noted: human; for Papp A→B at 180 min: read-out: Papp Apical → basolateral; for Papp B→A at 180 min: read-out: Papp Basolateral → apical. It is filed as in vitro ADME. Here is the method: (§1) Caco-2 cells (passage number 34–36, American Type Culture Collection, Manassas, VA) were cultured at 37 °C in an atmosphere of 5% CO2 and 90% relative humidity in Dulbecco’s modified Eagle’s medium supplemented with 10% fetal bovine serum, 1% penicillin–streptomycin, 1% HEPES, 1% sodium pyruvate and 1% minimal essential medium nonessential amino acids. After harvesting at 90% confluence, the cells were seeded on to 0.4 μm polycarbonate membrane transwell inserts (12 mm diameter) at a density of 1.5 × 10^5 cells/cm^2. The culture media was changed every other day during the first 7 days after seeding and once a day thereafter. Cell monolayers were ready for experiments from 20 to 24 days postseeding.
(§2) Experiments in triplicate were performed in HBSS (pH =7.4).To ensure the stability of Sal A in HBSS, VC was applied in this study as stabilizer. The monolayers were washed three times with prewarmed HBSS (37 °C) before use. The integrity of the Caco-2 monolayers was monitored by measuring the transepithelial electrical resistance, and only monolayers with values ≥400 Ω/cm^2 were used. The monolayers were incubated with HBSS at 37 °C for 30 min, and then the incubation medium was aspirated. Afterwards, bidirectional transport experiments were conducted. Sal A solution of appropriate concentrations in HBSS (containing VC 1 0^−4 mol/L) were loaded to the donor compartments and the blank HBSS (containing VC 1 0^−4 mol/L) was added to the receiver compartments. Seven sequential samples (50 μL) were collected at different times (0, 30, 60, 90, 120, 150, 180 min) from the receiver side. The same volume of receiver medium was replaced after each sampling. The collected samples were added into tubes with 40 μL MeOH–H2O (50:50, v/v, containing VC 100 μg/mL). Then, 10 μL of the IS spiking solution (butyl paraben, 1 μg/mL) was added. After centrifugation at 13,400 rpm for 5 min, 20 μL of the supernatant was injected to the LC–MS system.
(§3) Influence of the stabilizer on the transport of Sal A has also been tested under the condition of different concentrations of VC. The samples were collected, treated and analyzed according to the same procedure.
(§4) The apparent permeability coefficient (Papp) was calculated according to the following equation: Papp=(ΔQ/Δt)/(A×C0) where ΔQ/Δt is the linear appearance rate of the tested compound in the receiver compartments, A is the surface area of the cell monolayer and C0 is the initial concentration of the tested compound in the donor side.
(In general: Passage across Caco-2 layers is used to estimate intestinal permeability.)

Another data set deals with Caco-2 cell monolayer. The data set is described as above. It is filed as in vitro ADME. Here is the method: as §1, §2, §3, §4
A short description of data set [2]: Tissue distribution of Sal A in rats. It is filed as in vivo, Sprague-Dawley rats. The settings on record: single oral dose 5 mg/kg. Here is the method: Twenty-four healthy, intact Sprague–Dawley rats (male/female, 1/1, 185–215 g, Certificate No. SCXK 2006-0009) were purchased from Vital River Laboratories (Beijing, China). The rats were maintained in air-conditioned animal quarters with alternating 12 h light/dark cycles at a room temperature of 22 ± 2 °C and a relative humidity of 50 ± 10%. The rodents were given a commercial rat chow and water ad libitum. The experiment started after acclimation to the facilities for 7 days. The animal protocols used in this study followed guidelines set forth by the Ethic Committee of Laboratory Animals of the Affiliated Hospital of Qingdao University (QYFYKYLL 2013-2-4-01).
Rats were fasted overnight (∼12 h) and had free access to water throughout the experimental period. In our study, rats were treated as followed: 18 rats were divided into 3 groups randomly (6 rats/group, male/female =1/1) and were all given a single oral dose of 5 mg/kg. The animals were sacrificed 10 min, 1 and 2 h postdosing and stomach, small intestine, heart, liver, spleen, lung, kidney and brain were harvested for drug analysis. The remaining six rats were given normal saline as control. Tissue samples were frozen and maintained at –80 °C immediately until analysis.
Tissues were homogenized in normal saline (2 mL/g, except 6 mL/g for stomach) using a FLUKO F6/10 for 1–2 min over an ice bath. The aliquots of 200 μL homogenized tissues were used for the LC–MS analysis. The remaining steps were the same as sample preparation in “Pharmacokinetic study in vivo”.

Details of data set [3]: method as in Lai et al. [2011]. To be noted: rats, salvianolic acid extract 800 mg/kg oral (Sal A 5.71% of mixture); ref Lai et al. [2011]; cited from earlier work.
On the set-up of data set [4]: method as in Sun et al. [2013]. To be noted: Beagle dogs, oral, pure form; ref Sun et al. [2013]; cited from earlier work.
Where [5] appears, read: Caco-2, pH 7.4, Sal A 10^–4/3 mol/L, HBSS pH 7.4, VC 10^−4 mol/L.
The mark [6] stands for this setting: Caco-2, pH 7.4, Sal A 10^–4/9 mol/L, HBSS pH 7.4, VC 10^–4 mol/L.
Setting [7] is: Caco-2, pH 7.4, Sal A 10^–4/9 mol/L, VC 10^–3/3 mol/L.
[8] abbreviates: Caco-2, pH 7.4, Sal A 10^–4/9 mol/L, VC 10^–3 mol/L.
[9] abbreviates: Caco-2, pH 7.4, Sal A 10^–4/27 mol/L, HBSS pH 7.4, VC 10^−4 mol/L.

Entries after “also recorded” stand apart in the source; their conditions may differ. Read-outs that look alike come from different tables or passages of the source. Where only a bound is given, the exact number is not on record here.

As to `O=C(/C=C/c1ccc(O)c(O)c1/C=C/c1ccc(O)c(O)c1)O[C@H](Cc1ccc(O)c(O)c1)C(=O)O` [Sal A, Salvianolic acid A], the Papp A→B at 180 min in data set [1] (setting [5]) stood at 0.156 ± 0.0412 ×10⁻⁶ cm/s; in data set [1] (setting [6]), 0.152 ± 0.0055 ×10⁻⁶ cm/s; in data set [1] (setting [7]), 0.155 ± 0.003 ×10⁻⁶ cm/s; in data set [1] (setting [8]), 0.153 ± 0.0028 ×10⁻⁶ cm/s; in data set [1] (setting [9]), 0.641 ± 0.0576 ×10⁻⁶ cm/s. The Papp B→A at 180 min worked out at 0.508 ± 0.0118 ×10⁻⁶ cm/s in data set [1] (setting [5]); 0.605 ± 0.0175 ×10⁻⁶ cm/s in data set [1] (setting [6]); 0.507 ± 0.087 ×10⁻⁶ cm/s in data set [1] (setting [7]); 0.478 ± 0.0453 ×10⁻⁶ cm/s in data set [1] (setting [8]); 0.987 ± 0.121 ×10⁻⁶ cm/s in data set [1] (setting [9]). The efflux ratio at 180 min in data set [1] (pH 7.4, Caco-2 monolayer, read-out: ratio of PB–A to PA–B (Papp basolateral to apical / apical to basolateral)) is roughly 3. Besides, in the data set with Caco-2 cell monolayer (different VC concentrations, p> 0.05), the “influence of VC concentration on the amount of Sal A transported” value is recorded as “no significant difference”. Further, the “membrane permeability (classification by Papp)” value with Caco-2 cell monolayer (poorly absorbed: Papp <1 × 10^−6 cm/s) was “poor membrane permeability”. Further, the “presence in brain homogenate” value in data set [2] is given as “detected in brain homogenate”. Also, the “time to distribute into tissues” value in data set [2] is reported as no more than 10 min. Besides, in data set [2] (10 min, 1 and 2 h, 5 mg/kg), the “tissue with highest concentration” value was “stomach followed by small intestine and liver; also recorded: highest tissue concentration was found in stomach”. Also, the “absolute bioavailability of Sal A” value in data set [3] is 2.5%. Moreover, the absolute bioavailability in data set [4] was 1.25%.
